No end group written: not given here.

What is called MIC is the smallest concentration in the dilution series that meets the test's criterion for growth inhibition.

Data set [1] has as its system Gram-positive and Gram-negative bacteria. Nature of the data set: Agar well diffusion assay, inhibition profiling of six strains. The conditions noted are these: fermentation supernatant, 9 μg·mL^−1 rTurgencin A; B. subtilis, S. aureus, L. monocytogenes, Salmonella spp., E. coli O157, E. coli. The data set is classed as cell-based. How it is done:
(§1) The test bacterial strain was seeded into an LB liquid medium and cultured at 37 °C until the OD600 value reached 1. In total, 50 μL of bacteria was mixed with the 15 mL molten LB medium (1% peptone, 1% NaCl, and 0.5% yeast extract) at 25 °C and allowed to solidify. Holes were punched with sterile gun heads. Subsequently, 50 μL of the fermentation supernatant was added to the holes. Gentamicin (Gen) at 50 µg·mL^−1 was used as the positive control. The antibacterial peptide SC3, which was not active in the laboratory, was used as the negative control.

Data set [2] concerns S. aureus ATCC25923. The data set can be described thus: Stability in salt solutions, read out by agar well diffusion assay. In kind it is physicochemical, Staphylococcus aureus. The conditions noted are these: 5 mM MgCl2, 50 mM MgCl2, 50 mM KCl and 150 mM KCl; 13.7 μg·mL^−1; inhibition circle against S. aureus ATCC25923; n = 3. On the procedure: as §1
(§2) The rTurgencin A freeze-dried fermentation supernatant was dissolved in different buffers. The contents were all 200 mg·mL^−1. Therefore, the concentrations of rTurgencin A in this experiment were all 13.7 μg·mL^−1.
The rTurgencin A freeze-dried fermentation supernatant was dissolved in 5 mM MgCl2, 50 mM MgCl2, 50 mM KCl, and 150 mM KCl, respectively. Then, the samples were subjected to an agar well diffusion assay. Twelve hours later, the inhibition circle was observed. The negative control was the different salt solutions.

Data set [3] concerns S. aureus ATCC25923. The data set can be described thus: pH stability, read out by agar well diffusion assay. The data set is classed as physicochemical, Staphylococcus aureus. As to conditions: 13.7 μg·mL^−1; 100 mM buffers pH 2, 4, 6, 8, 10; 37 °C, 4 h; inhibition circle against S. aureus ATCC25923 after 12 h; n = 3. How it is done:
as §1, §2
The rTurgencin A freeze-dried fermentation supernatant was dissolved in a glycine solution at a pH of 2, a sodium acetate solution at a pH of 4, a Tris-HCl solution at a pH of 6, a Tris-HCl solution at a pH of 8, and a glycine solution at a pH of 10. The final concentrations of the buffer solution were all 100 mM. Then, the samples were treated at 37 °C for 4 h and subjected to the agar well diffusion assay. Twelve hours later, the inhibition circle was observed. The negative control was a buffer solution of different pHs.

Another data set has as its system B. subtilis ATCC6633. The data set can be described thus: Minimum inhibitory concentration (MIC) determination. The data set is classed as cell-based, Bacillus subtilis. The conditions noted are these: B. subtilis (ATCC 6633); 96-well plate, LB, fermentation supernatant diluted to 1-6 μg·mL^−1; lowest peptide concentration with no bacterial growth; n = 3. How it is done: (§3) A single colony of the tested bacteria was picked to LB liquid medium and incubated at 37 °C until the OD600 reached about 1. This test bacteria solution was diluted 1000 times. The fermentation supernatant was serially diluted in a 96-well plate using replacement buffer to 1, 2, 3, 4, 5, and 6 μg·mL^−1 concentrations. Then, 20 μL of the diluted peptide and 100 μL of the test bacterium were added to each well. The negative control and positive control were […], respectively. The MIC value was defined as the lowest peptide concentration associated with no bacterial growth. In this study, the MIC values of Turgencin A were determined against S. aureus ATCC25923, Salmonella spp. ATCC10467, E. coli ATCC10305, E. Coli O157 ATCC35150, L. monocytogenes ATCC21633, and B. subtilis ATCC6633.

Data set [4] deals with total food spoilage bacteria in pork. Nature of the data set: Pork preservation experiment, total number of bacteria. The conditions noted are these: pork treated with rTurgencin A at 10 μg·mL^−1, stored at 4 °C; days 0, 1, 3, 5; control group increasing. How it is done: The fermentation supernatant was passed through a 0.22 μm membrane filter and transferred to a beaker. Fresh pork hind leg meat was cut into 5 g pieces and placed in the above solution, soaked for 1 min in each direction, shaken so that the surface of the meat was fully exposed to the solution, removed, placed on cling film to drain, left for 5 min at room temperature, turned over, and left for another 5 min to remove excess water so that the meat neither dripped nor was too dry. […] The colony count is expressed by colony-forming units (CFU), and a common logarithm determines the total number of colonies. SC3 served as the negative control.

The test system of data set [5] is S. aureus ATCC25923. Nature of the data set: Agar well diffusion assay. In kind it is cell-based, Staphylococcus aureus. As to conditions: 9 μg·mL^−1 rTurgencin A fermentation supernatant, 50 μL per well, against 50 μg·mL^−1 gentamicin. On the procedure:
as §1

Data set [6] has as its system Salmonella spp. ATCC10467. Nature of the data set: Minimum inhibitory concentration (MIC) determination. In kind it is cell-based. The conditions noted are these: Salmonella spp. (ATCC 10467); 96-well plate, LB, fermentation supernatant diluted to 1-6 μg·mL^−1; lowest peptide concentration with no bacterial growth; n = 3. On the procedure: as §3
Data set [7] is described as follows: Pork preservation experiment, flesh color. As to conditions: pork treated with rTurgencin A at 10 μg·mL^−1, stored at 4 °C; days 0, 2, 4, 6; control deteriorated on day 4. How it is done: The fermentation supernatant was passed through a 0.22 μm membrane filter and transferred to a beaker. Fresh pork hind leg meat was cut into 5 g pieces and placed in the above solution, soaked for 1 min in each direction, shaken so that the surface of the meat was fully exposed to the solution, removed, placed on cling film to drain, left for 5 min at room temperature, turned over, and left for another 5 min to remove excess water so that the meat neither dripped nor was too dry. The meat was then wrapped in plastic and stored in a refrigerator at 4 °C for seven days. During this period, the pork samples were tested for colony counts every 48 h, according to the method of GB 4789-2022 [42]. The colony count is expressed by colony-forming units (CFU), and a common logarithm determines the total number of colonies. SC3 served as the negative control.

The next data set concerns E. coli ATCC10305. The data set can be described thus: Minimum inhibitory concentration (MIC) determination. In kind it is cell-based, Escherichia coli. The conditions noted are these: E. coli (ATCC 10305); 96-well plate, LB, fermentation supernatant diluted to 1-6 μg·mL^−1; lowest peptide concentration with no bacterial growth; n = 3. On the procedure:
as §3

The next data set deals with E. coli O157 ATCC35150. The description is as above. The data set is classed as cell-based, Escherichia coli O157. The conditions noted are these: E. coli O157 (ATCC 35150); 96-well plate, LB, fermentation supernatant diluted to 1-6 μg·mL^−1; lowest peptide concentration with no bacterial growth; n = 3. How it is done:
as §3

Data set [8] deals with S. aureus ATCC25923. Nature of the data set: Total nucleotide leakage. The data set is classed as cell-based, Staphylococcus aureus. As to conditions: positive control 0.1% Triton X-100, 4 h. How it is done: The total nucleotide leakage associated with the peptide activity was analyzed according to the protocol described by Shwaiki et al.. We detected the total nucleotide leakage of the effect of Turgencin A on the cell membrane of S. aureus ATCC25923. The OD of each concentration was measured at 260 nm after four hours of contact reaction. The positive and negative controls were 0.1% Triton X-100 and water, respectively.

Data set [9] deals with S. aureus ATCC25923. Nature of the data set: Temperature stability, read out by agar well diffusion assay. In kind it is physicochemical, Staphylococcus aureus. As to conditions: 13.7 μg·mL^−1 in 50 mM pH 7.4 Tris-HCl, inhibition circle against S. aureus ATCC25923 after 12 h, n = 3. On the procedure:
as §1, §2
The rTurgencin A freeze-dried fermentation supernatant was dissolved in a 50 mM pH 7.4 Tris-HCl solution and then treated at 4 °C, 25 °C, 37 °C, 65 °C, and 90 °C for 1 h. The samples were subjected to an agar well diffusion assay. Twelve hours later, the inhibition circle was observed. The negative control was a 50 mM pH 7.4 Tris-HCl solution after treatment for 1 h at the same temperature.

Data set [10] relates to S. aureus ATCC25923. The data set can be described thus: Protease stability, read out by agar well diffusion assay. The data set is classed as in vitro ADME, Staphylococcus aureus. The conditions noted are these: 2 h, 13.7 μg·mL^−1, inhibition circle against S. aureus ATCC25923, n = 3. On the procedure:
as §1, §2
The rTurgencin A freeze-dried fermentation supernatant was dissolved in buffers of a glycine solution at a pH of 2, a PBS solution at a pH of 6, a Tris-HCl solution at a pH of 7, and a Tris-HCl solution at a pH of 8. The final concentrations of the buffer solution were all 100 mM. Pepsin was added to the solution at a pH of 2, papain at a pH of 6, proteinase K at a pH of 7, and trypsin at a pH of 8. The protease concentrations were all 1 mg·mL^−1. The mixtures of 0.24 U of different protease solutions and rTurgencin A were reacted at 37 °C for 2 h. The samples were then subjected to an agar well diffusion assay. Twelve hours later, the inhibition circle was observed. The negative control was different protease solutions.
For orientation: A growth-free zone around the sample is the usual read-out of agar diffusion tests.

The test system of data set [11] is S. aureus ATCC25923. The data set can be described thus: Minimum inhibitory concentration (MIC) determination. The data set is classed as cell-based, Staphylococcus aureus. The conditions noted are these: S. aureus (ATCC 25923); 96-well plate, LB, fermentation supernatant diluted to 1-6 μg·mL^−1; lowest peptide concentration with no bacterial growth; n = 3. How it is done:
as §3

Data set [12] can be described thus: Antibacterial activity of the nickel column purified product. The conditions noted are these: nickel column purified product after dialysis of the replacement solution. The data set is classed as cell-based. How it is done:
For the affinity purification with a nickel column, the Ni NTA Beads 6FF filler (Smart-Lifesciences, Changzhou, China) was added to the column, and the filler was rinsed twice with distilled water to remove ethanol, followed by two rinses with binding buffer (50 mM Tris-HCl pH = 7.9, 500 mM NaCl, and 10 mM Imidazole). The fermentation supernatant was treated with a 0.45 μm membrane filter, added to the nickel column, and combined with filler for 1 h in a low-speed shaker at 4 °C. The flow solution was collected and rinsed with binding buffer (50 mM Tris-HCl pH = 7.9, 500 mM NaCl, and 10 mM Imidazole) three times to wash off unbound proteins. Elution buffer (50 mM Tris-HCl pH = 7.9, 500 mM NaCl, and 1 M imidazole) was added and the eluent of the target protein was collected. Finally, the eluent was dialyzed in 0.01 M PBS for 12 h at a low temperature.

For data set [13], the system named is L. monocytogenes ATCC21633. Nature of the data set: Minimum inhibitory concentration (MIC) determination. In kind it is cell-based, Listeria monocytogenes. The conditions noted are these: L. monocytogenes (ATCC 21633); 96-well plate, LB, fermentation supernatant diluted to 1-6 μg·mL^−1; lowest peptide concentration with no bacterial growth; n = 3. On the procedure: as §3

Data set [14] relates to L. monocytogenes ATCC21633. The data set can be described thus: Agar well diffusion assay. In kind it is cell-based, Listeria monocytogenes. As to conditions: 9 μg·mL^−1 rTurgencin A fermentation supernatant, 50 μL per well, against 50 μg·mL^−1 gentamicin. On the procedure:
as §1

For the sequence “GPKTKAACKMACKLATCGKKPGGWKCKLCELGCDAV (disulfide (positions not given here)) [rTurgencin A, His-tagged recombinant Turgencin A expressed in Pichia pastoris; tested as yeast fermentation supernatant, concentration by ELISA]”, the “antibacterial activity (inhibition profiling)” value in [1] was “provided antibacterial activity against Gram-positive and Gram-negative bacteria”. Also, the “antibacterial activity in salt solutions” value in the data set with S. aureus ATCC25923 [2] is listed as “not affected”. Further, in the data set with S. aureus ATCC25923 [3], the “reduction in inhibitory action at low pHs” value is on record as 40%. For the same sequence, the “stability at neutral and high pH levels” value in the data set on S. aureus ATCC25923 [3] was “good stability”. In addition, the MIC in the data set on B. subtilis ATCC6633 was 2 µg/mL; in data set [6] it was 4 µg/mL; in the data set on E. coli ATCC10305, 5 µg/mL; with E. coli O157 ATCC35150, 5 µg/mL; with S. aureus ATCC25923 [11], 3 µg/mL; in data set [13] it was 3 µg/mL. Besides, the “bacterial colonies in pork over storage days” value in data set [4] is listed as “showed a decreasing trend with an increase in days”. For the same sequence, the “inhibition circle diameter compared with gentamicin” value (with S. aureus ATCC25923 [5]; in [14]) was “more significant than 50 μg·mL^−1 gentamicin” each time. In addition, the “color of the pork flesh” value in [7] is listed as “still bright on the fourth day”. The figures for the “total nucleotide leakage relative to the positive control” value in the data set with S. aureus ATCC25923 [8] (1 × MIC), in the data set on S. aureus ATCC25923 [8] (2 × MIC) and in the data set on S. aureus ATCC25923 [8] (3 × MIC) were 34.3%, 77.3% and 131.5%, respectively. Also, the “stability at low and room temperatures” value in the data set on S. aureus ATCC25923 [9] (4 °C, 25 °C and 37 °C for 1 h) is recorded as “good stability”. Further, the “diameter of the inhibition circle as % of the maximum inhibition circle diameter” value with S. aureus ATCC25923 [9] (90 °C for 1 h) is 55%. Further, the stability in papain entry in the data set with S. aureus ATCC25923 [10] (papain 1 mg·mL^−1 (0.24 U), 100 mM PBS pH 6, 37 °C) was “good stability”. The “antibacterial activity remaining in the presence of pepsin” value in the data set with S. aureus ATCC25923 [10] (pepsin 1 mg·mL^−1 (0.24 U), 100 mM glycine pH 2, 37 °C) came to 70%. Besides, the stability in k-protease result in the data set on S. aureus ATCC25923 [10] (proteinase K 1 mg·mL^−1 (0.24 U), 100 mM Tris-HCl pH 7, 37 °C) was “good stability”. Further, the stability in trypsin result with S. aureus ATCC25923 [10] (trypsin 1 mg·mL^−1 (0.24 U), 100 mM Tris-HCl pH 8, 37 °C) is on record as “good stability”. Besides, in data set [12], the “antibacterial activity of the purified product” value is “deficient antibacterial activity”.

For the origin of these results see publication PMC10384874, “The Expression of Antibacterial Peptide Turgencin A in Pichia pastoris and an Analysis of Its Antibacterial Activity” (Molecules, 2023).
